Molecules are shown by their SMILES.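 Following 48 hours of exposure in 96-well plates, responses at five concentrations were used to interpolate endpoints linearly. GI50 marks 50% less growth.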 Active and inactive are the calls of the source. Cut-off read from the data, not from the text of the source: active = GI50 up to about 1.1 µM and inactive = higher.

The text below walks through data of ChEMBL document CHEMBL1201862, “PubChem BioAssay data set” (2004).

Some test systems named below: MCF7; HCC 2998; OVCAR-4; SF-295; SK-OV-3; K562; HT-29; DU-145; SK-MEL-5; T47D; SF-539; HCT-15; SF-268; RPMI-8226; UO-31; UACC-62; CCRF-CEM; HOP-92; SR.
Holding throughout (test): NCI-60 cell line screen, 48 h

Turning to `Cc1[nH]c2c(C)ccc(C)c2c1CC(=O)O`, the GI50 was 36.6 µM (inactive) in the experiment with MCF7; 29.6 µM (inactive) in the experiment on HCC 2998; 38.1 µM (inactive) with OVCAR-4; 50.1 µM (inactive) in the experiment on SF-295; > 100 µM (inactive) in the experiment with SK-OV-3; 34.4 µM (inactive) with K562. For the same compound, the GI50 in the experiment with HT-29 is 43.3 µM (inactive); with DU-145, > 100 µM (inactive); in the experiment with SK-MEL-5, 48.9 µM (inactive); in the experiment with T47D, 41.8 µM (inactive); in the experiment on SF-539, 94.2 µM (inactive); in the experiment with HCT-15, 53.5 µM. For the same compound, the GI50 is 44.2 µM (inactive) with SF-268; 25.7 µM (inactive) with RPMI-8226; 37 µM (inactive) in the experiment on UO-31; 43.1 µM (inactive) with UACC-62; 20 µM (inactive) in the experiment with CCRF-CEM.

For `Nc1ncnc2c1ncn2C1OC(CO)C(O)C1N` (configuration not stated), the GI50 in the experiment on OVCAR-4, with SF-295, in the experiment with SK-OV-3, with K562, with HT-29 and with DU-145 was > 100 µM (inactive) in each case. In addition, the GI50 was > 100 µM (inactive) with SK-MEL-5; > 100 µM (inactive) in the experiment with T47D; > 100 µM (inactive) with SF-539; over 100 µM with HCT-15; > 100 µM (inactive) in the experiment with SF-268; > 100 µM (inactive) with RPMI-8226. Further, the GI50 in the experiment on HOP-92, in the experiment with SR, in the experiment with UO-31 and in the experiment with UACC-62 was > 100 µM (inactive) in each case.

As for `CCCCC(=O)Nc1ccc2cc(C(=O)OC)c(=O)[nH]c2n1`, the GI50 in the experiment with MCF7, with HCC 2998, in the experiment on OVCAR-4, with SF-295, in the experiment with SK-OV-3 and with K562 was > 100 µM (inactive) in each case. The GI50 with SK-MEL-5 was > 100 µM (inactive); in the experiment with T47D, > 100 µM (inactive); with SF-539 it was > 100 µM (inactive); in the experiment with HCT-15, over 100 µM; with SF-268, > 100 µM (inactive); in the experiment with RPMI-8226, > 100 µM (inactive). For the same compound, the GI50 in the experiment with HOP-92 is > 100 µM (inactive); with SR, > 100 µM (inactive); in the experiment on UO-31, > 100 µM (inactive); with CCRF-CEM it was 59.4 µM (inactive).

Consider `CC1=CCC2CC1NC(=O)CCOCCC(=O)NC2(C)C` (configuration not stated), for which the GI50 with MCF7, in the experiment with HCC 2998, with OVCAR-4, in the experiment with SF-295, with SK-OV-3 and with K562 was > 100 µM (inactive) throughout. The GI50 was > 100 µM (inactive) in the experiment with HT-29; > 100 µM (inactive) in the experiment on DU-145; > 100 µM (inactive) with SK-MEL-5; > 100 µM (inactive) in the experiment on SF-539; over 100 µM with HCT-15; > 100 µM (inactive) in the experiment on SF-268. For the same compound, the GI50 in the experiment with RPMI-8226, with HOP-92, in the experiment on SR, in the experiment on UO-31, with UACC-62 and in the experiment on CCRF-CEM was > 100 µM (inactive) throughout.

As for `CC(=O)c1c(SCCN2CCCCCC2)n(-c2ccccc2)c(=S)n(-c2ccccc2)c1=O`, the GI50 in the experiment on HCC 2998 is 4.3 µM (inactive); in the experiment on OVCAR-4, 20.9 µM (inactive); in the experiment on SF-295, 35.9 µM (inactive); with SK-OV-3, 48.3 µM (inactive); in the experiment on K562, 2.61 µM (inactive); in the experiment with HT-29 it was 7.4 µM (inactive). For the same compound, the GI50 with DU-145 was 2.17 µM (inactive); in the experiment on SK-MEL-5, 9.68 µM (inactive); with T47D, 2.31 µM (inactive); in the experiment with SF-539 it was 6 µM (inactive); in the experiment on HCT-15, 5.61 µM; in the experiment with SF-268, 11 µM (inactive). The GI50 is 0.384 µM (active) in the experiment on RPMI-8226; 6.53 µM (inactive) with HOP-92; 1.09 µM (active) with SR; 7.85 µM (inactive) in the experiment on UACC-62; 0.0462 µM (active) with CCRF-CEM.

Turning to `O=C1C=C(C2=CC(=O)C(=O)c3ccccc32)c2ccccc2C1=O`, the GI50 in the experiment with MCF7 is 9.98 µM (inactive); in the experiment on OVCAR-4, 47.6 µM (inactive); in the experiment on SF-295, 21.2 µM (inactive); with SK-OV-3, 44.1 µM (inactive); in the experiment on K562, 3.3 µM (inactive); in the experiment with HT-29, 28.6 µM (inactive). Besides, the GI50 in the experiment with DU-145 is 14.9 µM (inactive); in the experiment on SK-MEL-5, 2.85 µM (inactive); in the experiment on T47D, 19.5 µM (inactive); with SF-539, 19.4 µM (inactive); in the experiment on HCT-15, 11.8 µM; in the experiment on SF-268 it was 13.5 µM (inactive). Besides, the GI50 in the experiment with RPMI-8226 is 6.17 µM (inactive); in the experiment on HOP-92, 11.3 µM (inactive); with UO-31, 6.14 µM (inactive); with UACC-62 it was 5.37 µM (inactive); in the experiment with CCRF-CEM it was 1.98 µM (inactive).

Regarding `O=C(NC(=S)NC(=O)c1cc(O)c(O)c(O)c1)c1cc(O)c(O)c(O)c1`, the GI50 with MCF7 is 38.7 µM (inactive); in the experiment with HCC 2998, 31 µM (inactive); in the experiment on OVCAR-4 it was 20.4 µM (inactive); with SF-295, 17.1 µM (inactive); in the experiment with SK-OV-3, 23.2 µM (inactive); in the experiment with K562, 8.34 µM (inactive). In addition, the GI50 in the experiment on HT-29 was 25.9 µM (inactive); in the experiment with DU-145, 25.5 µM (inactive); in the experiment with SK-MEL-5, 24.5 µM (inactive); in the experiment on SF-539, 30.8 µM (inactive); in the experiment with HCT-15 it was 23.9 µM; with SF-268 it was 31.1 µM (inactive). Besides, the GI50 is 48.3 µM (inactive) in the experiment with RPMI-8226; 32.7 µM (inactive) in the experiment with HOP-92; > 100 µM (inactive) with SR; 22.4 µM (inactive) in the experiment with UO-31; 23.7 µM (inactive) in the experiment on UACC-62; 4.41 µM (inactive) with CCRF-CEM.

Consider `FC(F)(F)C1(C(F)(F)F)OC(Cl)(Cl)C(Cl)(Cl)O1`, for which the GI50 in the experiment with MCF7, with HCC 2998, in the experiment with OVCAR-4, in the experiment with SF-295, in the experiment with SK-OV-3 and with HT-29 was > 10 µM (inactive) each time. Besides, the GI50 was > 10 µM (inactive) in the experiment on DU-145; > 10 µM (inactive) with SK-MEL-5; > 10 µM (inactive) in the experiment with T47D; > 10 µM (inactive) in the experiment on SF-539; over 10 µM in the experiment on HCT-15; > 10 µM (inactive) in the experiment on SF-268. The GI50 with HOP-92 and in the experiment with UACC-62 was > 10 µM (inactive) in each case.

Turning to `O=c1c2ccc(S(=O)(=O)c3ccc4c(=O)n5c6ccccc6nc5c5cccc3c45)c3cccc(c32)c2nc3ccccc3n12`, the GI50 in the experiment on MCF7 was > 100 µM (inactive); with HCC 2998, > 100 µM (inactive); with SF-295, 15.3 µM (inactive); in the experiment with SK-OV-3, 5.26 µM (inactive); in the experiment with HT-29 it was > 100 µM (inactive); in the experiment with DU-145 it was 59.6 µM (inactive). For the same compound, the GI50 is > 100 µM (inactive) in the experiment with SK-MEL-5; 36.6 µM (inactive) with T47D; 28.7 µM (inactive) in the experiment with SF-539; 93.5 µM in the experiment on HCT-15; 33.5 µM (inactive) with SF-268; > 100 µM (inactive) in the experiment on RPMI-8226. For the same compound, the GI50 with UO-31 is 39.9 µM (inactive); with UACC-62, 45.5 µM (inactive).
